Counter-ions that a name gives are not always drawn.
Legend:
GABAA or GABAB = details: cited from earlier work
[1] = system: GABA uptake or degradation; details: cited from earlier work
[2] = system: norepinephrine neuronal reuptake; details: cited from earlier work
[3] = system: dopamine neuronal reuptake; details: cited from earlier work
[4] = cited from earlier work; for elimination half-life: plasma; for oral absorption (in words): oral administration; for time to peak plasma concentration: after oral dosing; for time to steady state plasma concentrations: repeated dosing
[5] = system: treatment resistant depression; experiment: Example 11: case, treatment resistant depression; assay type: in vivo, human; details: under prior psychiatrist
monoamine oxidase = details: cited from earlier work
[6] = system: serotonin 5-HT2 and 5-HT3 receptors; details: cited from earlier work
histamine H1 receptor [7] = target: T1, histamine H1 receptor (Homo sapiens, UniProt P35367); details: cited from earlier work
[8] = system: central presynaptic a2 adrenergic inhibitory autoreceptors and heteroreceptors; details: cited from earlier work
[9] = system: 5-HT1A and 5-HT1B receptors; details: cited from earlier work
[10] = system: peripheral al adrenergic and muscarinic receptors; details: cited from earlier work
[11] = cited from earlier work
[12] = target: serotonin 5-HT2A receptor (Homo sapiens, UniProt P28223); details: cited from earlier work
[13] = system: cholinergic muscarinic receptors; details: cited from earlier work
serotonin reuptake site = serotonin reuptake site (Homo sapiens, UniProt P31645); details: cited from earlier work
bipolar I patients = details: cited from earlier work
status epilepticus = details: add-on therapy with other anti-epileptic drugs; cited from earlier work
[14] = system: GABAA, BZD, and β adrenergic receptors; details: cited from earlier work
anxiety and depression = details: human, in vivo; cited from earlier work
[15] = system: cholinergic, muscarinic, and benzodiazepine receptors; details: cited from earlier work
[16] = system: cholinergic muscarinic or β1 and β2 adrenergic receptors; details: cited from earlier work
[17] = system: dopamine D1 and haloperidol-sensitive sigma site; details: cited from earlier work
[18] = system: serotonin 5-HT1C, 5-HT1D and 5-HT1A receptors; details: cited from earlier work
[19] = system: treatment resistant depression; assay type: in vivo, human; details: 150 mg titrated up to 225 mg
[20] = system: uptake of glutamate, or choline; details: cited from earlier work
[21] = system: neuronal serotonin reuptake; details: cited from earlier work
[22] = system: dopamine D1 and D2, muscarinic, serotonin 5HT1A, 5HT2, 5HT3, β-1 and 2 adrenergic, α-1 and α-2 adrenergic, histamine H2 and H3, adenosine A1 and A2, opiate μ …; details: cited from earlier work
[23] = system: histamine H1, serotonin 5HT1B, benzodiazepine, and chloride channel receptors; details: cited from earlier work
[24] = system: D2, 5-HT2A, and 5-HT1D receptors; details: cited from earlier work
5-HT1A receptor = 5-HT1A receptor (Homo sapiens, UniProt P08908); details: cited from earlier work
histamine H1 receptor [25] = target: T1, histamine H1 receptor; details: cited from earlier work; remark: listed apart in the source
[26] = system: dopamine D2 and D3, serotonin 5-HT2A, 5-HT2C, 5-HT1D and α-adrenergic receptors; details: cited from earlier work
[27] = system: other receptor/binding sites tested, including the cholinergic muscarinic receptor; details: cited from earlier work
[28] = maintenance treatment over eighteen months
[29] = quetiapine fumarate (150 mg BID) and divalproex (500 mg BID)

T1 sequence (P35367 whole entry, species assumed): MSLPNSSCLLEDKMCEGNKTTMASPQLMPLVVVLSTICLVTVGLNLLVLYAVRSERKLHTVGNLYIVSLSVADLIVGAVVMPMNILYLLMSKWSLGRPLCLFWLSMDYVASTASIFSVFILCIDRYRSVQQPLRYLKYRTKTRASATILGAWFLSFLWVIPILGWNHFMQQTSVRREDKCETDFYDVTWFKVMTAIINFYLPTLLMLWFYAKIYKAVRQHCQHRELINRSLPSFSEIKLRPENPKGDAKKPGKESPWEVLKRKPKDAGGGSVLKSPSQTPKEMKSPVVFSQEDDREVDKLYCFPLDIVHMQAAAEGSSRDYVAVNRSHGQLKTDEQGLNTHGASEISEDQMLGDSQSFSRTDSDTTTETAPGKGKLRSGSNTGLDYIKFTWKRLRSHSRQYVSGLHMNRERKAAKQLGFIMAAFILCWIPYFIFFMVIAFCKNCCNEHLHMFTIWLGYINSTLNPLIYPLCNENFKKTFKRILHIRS
5-HT1A receptor, sequence (P08908 whole entry): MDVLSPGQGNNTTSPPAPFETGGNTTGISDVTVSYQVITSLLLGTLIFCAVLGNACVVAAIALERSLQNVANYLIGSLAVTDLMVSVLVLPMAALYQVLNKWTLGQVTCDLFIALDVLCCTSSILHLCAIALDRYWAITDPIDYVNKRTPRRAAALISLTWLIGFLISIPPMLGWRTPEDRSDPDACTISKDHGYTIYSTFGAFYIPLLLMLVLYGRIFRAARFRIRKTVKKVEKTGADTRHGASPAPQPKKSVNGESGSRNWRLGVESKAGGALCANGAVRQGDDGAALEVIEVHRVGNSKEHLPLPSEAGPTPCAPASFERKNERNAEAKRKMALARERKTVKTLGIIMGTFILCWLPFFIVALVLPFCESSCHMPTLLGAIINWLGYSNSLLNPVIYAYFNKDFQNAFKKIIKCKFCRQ
serotonin reuptake site, sequence (P31645 whole entry): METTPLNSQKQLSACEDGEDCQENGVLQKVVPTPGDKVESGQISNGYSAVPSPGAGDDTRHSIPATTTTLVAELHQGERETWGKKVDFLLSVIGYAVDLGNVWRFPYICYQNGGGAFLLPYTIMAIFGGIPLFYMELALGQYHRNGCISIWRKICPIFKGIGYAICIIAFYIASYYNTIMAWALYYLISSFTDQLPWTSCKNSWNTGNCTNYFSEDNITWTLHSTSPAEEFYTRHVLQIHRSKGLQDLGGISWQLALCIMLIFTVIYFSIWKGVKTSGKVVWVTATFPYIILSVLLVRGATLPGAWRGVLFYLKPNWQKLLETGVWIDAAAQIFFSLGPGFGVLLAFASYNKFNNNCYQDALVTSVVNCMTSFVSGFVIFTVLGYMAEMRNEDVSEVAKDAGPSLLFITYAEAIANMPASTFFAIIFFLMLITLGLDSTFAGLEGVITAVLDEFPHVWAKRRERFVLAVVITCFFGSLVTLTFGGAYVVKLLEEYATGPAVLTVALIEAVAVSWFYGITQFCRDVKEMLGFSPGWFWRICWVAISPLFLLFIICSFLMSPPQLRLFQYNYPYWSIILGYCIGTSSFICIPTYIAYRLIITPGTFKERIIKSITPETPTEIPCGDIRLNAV
serotonin 5-HT2A receptor, sequence (P28223 whole entry): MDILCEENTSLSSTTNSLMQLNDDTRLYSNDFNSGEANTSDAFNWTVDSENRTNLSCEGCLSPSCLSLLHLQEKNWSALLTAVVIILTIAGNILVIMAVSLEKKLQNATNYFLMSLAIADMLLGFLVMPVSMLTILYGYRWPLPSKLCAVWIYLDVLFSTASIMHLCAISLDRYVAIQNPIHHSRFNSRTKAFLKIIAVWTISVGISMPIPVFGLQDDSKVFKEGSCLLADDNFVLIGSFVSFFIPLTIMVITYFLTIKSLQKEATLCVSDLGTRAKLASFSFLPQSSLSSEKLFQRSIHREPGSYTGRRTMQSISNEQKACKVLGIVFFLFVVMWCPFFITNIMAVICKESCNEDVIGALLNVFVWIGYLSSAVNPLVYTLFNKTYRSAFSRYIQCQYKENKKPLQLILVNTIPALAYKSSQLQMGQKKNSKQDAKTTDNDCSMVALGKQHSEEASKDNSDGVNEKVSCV

1-(aminoethyl)cyclohexaneacetic acid [gabapentin]
effect on radioligand binding (GABAA or GABAB): does not modify | inhibition of GABA uptake or degradation [1]: not an inhibitor | effect on norepinephrine reuptake (in words) [2]: does not alter | effect on dopamine reuptake (in words) [3]: does not alter

CC(NC(C)(C)C)C(=O)c1cccc(Cl)c1.Cl (racemic) [bupropion, (±)-1-(3-chlorophenyl)-2-[(1,1-dimethylethyl)amino]-1-propanone hydrochloride]
elimination half-life [4]: approximately 21 hours | symptomatic success in MDD, first episode [5]: modest symptomatic success | inhibition of monoamine oxidase (monoamine oxidase): does not inhibit | effect on norepinephrine reuptake (in words) [2]: relatively weak inhibitor | effect on dopamine reuptake (in words) [3]: relatively weak inhibitor

CN1CCN2c3ncccc3Cc3ccccc3C2C1 (racemic) [mirtazapine, 1,2,3,4,10,14b-hexahydro-2-mehtylpryazino [2.1-a] pyrido [2,3-c] benzazepine]
functional activity [6]: potent antagonist | functional activity (histamine H1 receptor [7]): potent antagonist | functional activity [8]: antagonist | affinity [9]: no significant affinity | functional activity [10]: moderate antagonist

O=C1CCc2ccc(OCCCCN3CCN(c4cccc(Cl)c4Cl)CC3)cc2N1 [aripiprazole, 7-[4-[4-(2,3-dichlorophenyl)-1-piperazinyl]butoxy]-3,4-dihydrocarbostyril]
pharmacokinetics ([11]; lithium (1200-1800 mg/day) for 21 days with aripiprazole (30 mg/day)): did not result in clinically significant changes | functional activity [12]: antagonist | oral absorption (in words) [4]: well absorbed | affinity [13]: no appreciable affinity | affinity (serotonin reuptake site): moderate affinity

Nc1nnc(-c2cccc(Cl)c2Cl)c(N)n1 [lamotrigine, 3,5-diamino-6-(2,3-dichlorophenyl)-1,2,4-triazine]
delay of time to occurrence of a mood episode (bipolar I patients; approximately 200 mg/day, ranging from 100 mg/day to 400 mg/day): effective in delaying the time to occurrence of a mood episode | mood pole against which predominantly effective (bipolar I patients; [28]): predominantly effective against depression | prevention of mood episodes compared with placebo (bipolar I patients; [28]): superior to placebo | plasma concentration generally effective in controlling SE (status epilepticus): about 24 μg/ml

Cc1cc2c(s1)Nc1ccccc1N=C2N1CCN(C)CC1 [olanzapine, 2-methyl-4-(4-methyl-1-piperazinyl)-10H-thieno[2,3-b][1,5]benzodiazepine]
binding [14]: binds weakly

CNCCCC1c2ccccc2C=Cc2ccccc21.Cl [protriptyline, N-methyl-5H-dibenzo[a,d]-cycloheptene-5-propanamine hydrochloride]
time to significant plasma levels ([4]; human, in vivo): ≤ 2 h | oral absorption (in words) [4]: well absorbed | time to clinical effect (anxiety and depression): one week

OCCOCCN1CCN(C2=Nc3ccccc3Sc3ccccc32)CC1 [quetiapine, 5-[2-(4-dibenzo[b,f][1,4]thiazepin-11-yl-1-piperazinyl)ethoxy]ethanol fumarate]
extent of absorption or mean oral clearance [11, 29]: without affecting | increase of mean maximum plasma concentration at steady state [11, 29]: 17% | steady-state pharmacokinetics ([11]; quetiapine fumarate (300 mg BID) with fluoxetine (60 mg once daily), haloperidol (7.5 mg BID) or risperidone (3 mg BID)): did not alter | time to peak plasma concentration [4]: 1.5 h | elimination half-life [4]: about 6 hours | time to steady state plasma concentrations [4]: two | affinity [15]: no appreciable affinity

Cc1nc2n(c(=O)c1CCN1CCC(c3noc4cc(F)ccc34)CC1)CCCC2 [risperidone, 3-[2-[4-(6-fluoro-1,2-benzisoxazol-3-yl)piperidino]ethyl]-2-methyl-6,7,8,9-tetrahydro-4H-pyrido-[1,2-a]pyrimidin-4-one]
affinity [16]: no affinity | affinity [17]: weak affinity | affinity [18]: low to moderate affinity

CN[C@H]1CC[C@@H](c2ccc(Cl)c(Cl)c2)c2ccccc21.Cl [sertraline, (1S-cis)-4-(3,4-dichlorophenyl)-1,2,3,4-tetrahydro-N-methyl-1-naphthylamine hydrochloride]
reduction of elimination in elderly patients ([4]; elderly patients): approximately 40% | elimination half-life [4]: about 26 hours | effect on norepinephrine reuptake (in words) [2]: weak effects | response of first episode of Treatment Resistant Depression [19]: partial response | effect on dopamine reuptake (in words) [3]: weak effects

Cc1ccsc1C(=CCCN1CCC[C@@H](C(=O)O)C1)c1sccc1C [tiagabine, (−)-®-1-[4,4-Bis(3-methyl-2-thienyl)-3-butenyl]nipecotic acid hydrochloride]
time to peak plasma concentration [4]: approximately 45 minutes | fraction excreted in the feces ([4]; as metabolites): 63% | fraction excreted renally ([4]; as metabolites): 25% | fraction excreted unchanged ([4]; human, in vivo): 2% | oral absorption (in words) [4]: rapid | inhibition of uptake of glutamate or choline [20]: does not significantly inhibit | effect on norepinephrine reuptake (in words) [2]: does not significantly inhibit | inhibition of serotonin reuptake (in words) [21]: does not significantly inhibit | binding [22]: little or no binding | effect on dopamine reuptake (in words) [3]: does not significantly inhibit | binding [23]: at concentrations greatly exceeding that is needed to inhibit the uptake of GABA

O=C1Cc2cc(CCN3CCN(c4nsc5ccccc45)CC3)c(Cl)cc2N1 [ziprasidone, 5-[2-[4-(1,2-benzoisothiazol-3-yl)-1-piperazinyl]ethyl]-6-chloro-1,3-dihydro-2H-indol-2-one]
functional activity [24]: antagonist | functional activity (5-HT1A receptor): agonist | in vitro binding affinity (histamine H1 receptor [25]): moderate affinity | elimination half-life [4]: about 7 hours | time to steady state plasma concentrations [4]: one to three | effect on norepinephrine reuptake (in words) [2]: inhibited | inhibition of serotonin reuptake (in words) [21]: inhibited | in vitro binding affinity [26]: high in vitro binding affinity | affinity [27]: No appreciable affinity
